Reference: patent US20150336999A1, “PROCESS FOR THE PRODUCTION OF SOPHOROSE STARTING FROM SOPHOROLIPIDS” (IFP ENERGIES NOUVELLES, priority 2012, published 2015)
Values joined by “and” are separate entries in the source; they are usually repeats but may differ in a detail not shown here. Equal values may be shown once.

Experiments:
[1] = tested on: cellulolytic Trichoderma reesei system; conditions: known from the prior art (Mandels et al. 1962); cited from earlier work
T. reesei CL847 = experiment: Fed-batch cellulase production by T. reesei CL847 with sugar mixture containing inducing sugar; specific rate of protein production; assay type: cell-based, Trichoderma reesei; conditions: for specific protein production rate: fed-batch 166 h, 30° C.
Procedure: After growing cells of T. reesei CL847 (Durand H. et al. (1988a) Classical and molecular genetics applied to Trichoderma reesei for the selection of improved cellulolytic industrial strains. In: FEMS Symposium n° 43: Biochemistry and Genetics of Cellulose Degradation, p. 135-151. Academic Press, London) on glucose in stirred flasks up to the exhaustion of the glucose, cellulase production was carried out using a “fed-batch” process employing a solution the composition of which was as follows: 50 g/L of a mixture of sugars and 15 mL/L of 20% by weight NH3 as described in the publication “A new stoichiometric miniaturization strategy for screening of industrial microbial strains: application to cellulase hyper-producing Trichoderma reesei strains”, Microbial Cell Factories 2012, 11:70.
The mixture of sugars used contained (100−x)% by weight of glucose and x% by weight of inducing sugar:
in the first case (control), the inducing sugar was lactose at a quantity of x=8%
in the second, third and fourth cases, the inducing sugar was sophorose from the hydrolysate obtained in Example 3 which had been supplemented with pure glucose in order to have x=8%, x=0.3% and x=0.03% respectively.
The fed-batch process was carried out for 166 hours with a solution supply flow rate of 0.3 mL/h and at a temperature of 30° C.
Daily samples were taken in order to monitor the concentration of cells and the concentration of proteins. The induction capacity of the mixture of sugars used for the fed-batch process was expressed as the specific rate of protein production (mg of proteins produced per gram of producer cells per hour).

[2] = inducing sugar x=8% by weight of sugar mixture (rest glucose)

Structure (SMILES) | inducer of the cellulolytic Trichoderma reesei system [1] | induction relative to the mixture containing lactose at the same concentration (T. reesei CL847; 8% sophorose versus 8% lactose) | specific protein production rate (T. reesei CL847; inducing sugar x=0.03% by weight of sugar mixture (rest glucose)) [mg/g/h] | specific protein production rate (T. reesei CL847; inducing sugar x=0.3% by weight of sugar mixture (rest glucose)) [mg/g/h] | specific protein production rate (T. reesei CL847; [2])
O=C[C@H](O[C@@H]1O[C@H](CO)[C@@H](O)[C@H](O)[C@H]1O)[C@@H](O)[C@H](O)[C@H](O)CO [sophorose, 2-O-β-D-glucopyranosyl-D-glucose] | very good inducer | approximately twice as high | ~6 | 10.5 | 12 mg/g/h
OC[C@H]1O[C@@H](O[C@H]2[C@H](O)[C@@H](O)C(O)O[C@@H]2CO)[C@H](O)[C@@H](O)[C@H]1O (stereo partly drawn) [lactose, reference compound] |  |  |  |  | 6.4 mg/g/h and ~6 mg/g/h
